Data reported in patent EP4206196A1, “PYRIMIDINE SUBSTITUTED DERIVATIVES AS TYK2 INHIBITORS” (Almirall S.A., priority 2021, dated 2023).
“And” between values parts separate entries of the source, which are not always exact repeats. Equal entries are not always repeated. Where two headings read alike, the source gives them in different places.

Assays:
[1] = tested on: STAT6 through JAK1/JAK3; assay: IL4 induced STAT phosphorylation in Ramos cells (STAT6-bla reporter gene); assay type: cell-based; conditions: for inhibition at 5 µM / inhibition at 25 µM: Homo sapiens, Ramos; for inhibition at 25 µM: compound concentration 25 µM
Experimental: Stimulation of RAMOS cells with interleukine IL-4 activates the signaling pathway of STAT6 through JAK1/JAK3. In this assay, measurement of the activity of the reporter gene β-lactamase expression was used as the readout.
Ramos STAT6-bla RA-1 cell line were purchased from Life Technologies (ref. #K1243) and cultured as specified by the provider. A number of 30.000 cells per well (35 µl) were plated in a 384-well plate (Corning ref.# 3712) and cultured overnight at 37°C with 5% CO2 in a complete Optimem media (Life Technologies ref. #11058-021) containing 556 µg/mL CD40 (Life Technologies ref. #PHP0025), 0.5% (v/v) heat inactivated FBS (Life Technologies ref. #10082-147), 10 µM non-essential aminoacids NEAA (Sigma ref. #M7145), 100 µM Sodium Pyruvate (Gibco ref. #11360-039) and 100 U/mL Penicillin (Sigma ref. #P0781). Compounds were initially dissolved in 100% DMSO. Compound curves were then prepared using a 1/5 serial dilution (10 dilutions). The dilutions were directly diluted in complete Optimem media without CD40 at 40-fold their final concentration in 20% DMSO. IL-4 initial solution (Prepotech ref. #200-04) was prepared at 10-fold its EC80 in complete Optimem media without CD40. Compounds and IL-4 were added simultaneously to the wells with cells and incubated during 4 hours at 37°C (the final DMSO was 0.1%). The β-lactamase substrate (LifeTechnologies ref.#K1138) was prepared at 6-fold its final concentration as specified by the provider. Then 10 µL of the mixture was added to the wells to stop the stimulation. Plate was left in the dark over-night. Then a FRET reading was performed on an appropriate plate reader.
All experiments were analysed using an ExcelFit template and the four-parameter log equation. As % vs compound concentration. TABLE 3: Inhibition of IL4 induced STAT phosphorylation in Ramos cells.

[2] = target: T1, TYK2 (JH2domain-pseudokinase) (Homo sapiens, UniProt P29597); assay: TYK2 JH2 domain binding assay (KINOMEscan)
T1 construct: TYK2 (JH2domain-pseudokinase)-tagged T7 phage strains were prepared in an E. coli host derived from the BL21 strain; made in house; host or cells: E. coli BL21-derived host (T7 phage) or HEK-293 cells
T1 sequence (P29597 589-875 limits assumed): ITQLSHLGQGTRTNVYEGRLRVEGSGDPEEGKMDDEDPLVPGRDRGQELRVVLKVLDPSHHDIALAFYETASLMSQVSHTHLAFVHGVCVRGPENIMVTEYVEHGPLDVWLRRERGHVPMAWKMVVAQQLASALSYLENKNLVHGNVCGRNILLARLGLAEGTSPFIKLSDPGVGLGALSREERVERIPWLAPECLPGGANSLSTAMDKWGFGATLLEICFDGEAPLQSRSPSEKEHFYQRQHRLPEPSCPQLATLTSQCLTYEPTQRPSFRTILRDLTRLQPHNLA
In short: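 Kd values come from nonlinear least-squares fits of 11-point 3-fold dilutions (mostly 30,000 nM top, lowered when Kd fell below 0.5 nM). Test compound competed with bead-bound biotinylated ligand for qPCR-tagged TYK2 pseudokinase (JH2) domain, shaken 1 h at room temperature, with about 1% final DMSO.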

[3] = tested on: STAT1/3 through TYK2/JAK1; assay: IFNa induced STAT phosphorylation in HEK293 cells (SIE-bla reporter gene); assay type: cell-based; conditions: HEK293T-sie-bla cells, IFNa at EC80, 4 hours, read-out: Inhibition of IFNa induced STAT phosphorylation HEK293 cells IC50
In short: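 Read-out was FRET from a β-lactamase reporter under a SIE promoter in HEK293T cells, with substrate added after a 4 h, 37°C co-incubation of compound and EC80 IFNa and left overnight in the dark. Compounds ran as 10-point 1/5 dilutions at 0.1% final DMSO; four-parameter log fit gave IC50.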

Row | Kd [2] | IC50 ([3]; Homo sapiens, HEK293) | IC50 [3] | Molecule | inhibition at 5 µM ([1]; compound concentration 5 µM) | % Inhibition of IL4 induced STAT phosphorylation Ramos cells ([1]; compound concentration 5 µM, 5 µM) | inhibition at 25 µM [1]
1 | 1 to 10 nM | 100 to 1000 nM |  | COc1c(Nc2cc(NC(=O)C3CC3)ncn2)cccc1-c1ncn(C)n1 [Example 1, N-[6-[2-methoxy-3-(1-methyl-1,2,4-triazol-3-yl)anilino]pyrimidin-4-yl]cyclopropanecarboxamide] | 25% |  | 
2 | 0.2 to 1 nM | 10 to 100 nM |  | COc1c(Nc2cc(Nc3cc(C)nc(C)n3)ncn2)cccc1-c1ncn(C)n1 [Example 4, N6-(2,6-dimethylpyrimidin-4-yl)-N4-[2-methoxy-3-(1-methyl-1,2,4-triazol-3-yl)phenyl]pyrimidine-4,6-diamine] | 33% |  | 
3 | 0.2 to 1 nM | 10 to 100 nM |  | COc1c(C)cccc1Nc1cc(Nc2cc(C)nc(C)n2)ncn1 [Example 6, N6-(2,6-dimethylpyrimidin-4-yl)-N4-(2-methoxy-3-methyl-phenyl)pyrimidine-4,6-diamine] | 62% |  | 
4 | < 0.2 nM | > 1000 nM |  | Cc1cc(Nc2cc(Nc3ccccc3N(C)S(C)(=O)=O)ncn2)nc(C)n1 [Example 12, N-[2-[[6-[(2,6-dimethylpyrimidin-4-yl)amino]pyrimidin-4-yl]amino]phenyl]-N-methyl-methanesulfonamide] | 46% |  | 
5 | < 0.2 nM | < 10 nM |  | Cc1cc(Nc2cc(Nc3ccc(-c4cnn(C)c4C)cc3N(C)S(C)(=O)=O)ncn2)nc(C)n1 [Example 25, N-[5-(1,5-dimethylpyrazol-4-yl)-2-[[6-[(2,6-dimethylpyrimidin-4-yl)amino]pyrimidin-4-yl]amino]phenyl]-N-methyl-methanesulfonamide] | 57% |  | 
6 | < 0.2 nM | < 10 nM |  | CN(c1ccccc1Nc1cc(Nc2cccc(C#N)n2)ncn1)S(C)(=O)=O [Example 32, N-[2-[[6-[(6-cyano-2-pyridyl)amino]pyrimidin-4-yl]amino]phenyl]-N-methyl-methanesulfonamide] | 70% |  | 
7 | < 0.2 nM | 10 to 100 nM |  | COc1c(Nc2cc(Nc3cc(C)nc(C)n3)ncn2)cccc1-c1noc(C)n1 [Example 37, N4-(2,6-dimethylpyrimidin-4-yl)-N6-[2-methoxy-3-(5-methyl-1,2,4-oxadiazol-3-yl)phenyl]pyrimidine-4,6-diamine] | 44% |  | 
8 | < 0.2 nM | < 10 nM |  | Cc1cc(Nc2cc(Nc3ccc(C4CC4)cc3N(C)S(C)(=O)=O)ncn2)nc(C)n1 [Example 70, N-[5-cyclopropyl-2-[[6-[(2,6-dimethylpyrimidin-4-yl)amino]pyrimidin-4-yl]amino]phenyl]-N-methyl-methanesulfonamide] |  | 78% and 55% | 
9 | < 0.2 nM | 10 to 100 nM |  | COc1cc(-c2cnn(C)c2C)ccc1Nc1cc(Nc2cc(C)nc(C)n2)ncn1 [Example 80, N6-[4-(1,5-dimethylpyrazol-4-yl)-2-methoxy-phenyl]-N4-(2,6-dimethylpyrimidin-4-yl)pyrimidine-4,6-diamine] | 47% |  | 
10 | < 0.2 nM | < 10 nM |  | Cc1cc(Nc2cc(Nc3ccc(-c4cnn(C)c4C)cc3S(C)(=O)=O)ncn2)nc(C)n1 [Example 86, N4-[4-(1,5-dimethylpyrazol-4-yl)-2-methylsulfonyl-phenyl]-N6-(2,6-dimethylpyrimidin-4-yl)pyrimidine-4,6-diamine] |  |  | 78%
11 | < 0.2 nM | < 10 nM |  | Cc1cc(Nc2cc(Nc3ncc(-c4cnn(C)c4C)cc3N(C)S(C)(=O)=O)ncn2)ncc1F [Example 103, N-[5-(1,5-dimethylpyrazol-4-yl)-2-[[6-[(5-fluoro-4-methyl-2-pyridyl)amino]pyrimidin-4-yl]amino]-3-pyridyl]-N-methyl-methanesulfonamide] | 49% |  | 
12 | < 0.2 nM | < 10 nM |  | COc1c(-c2ncn(C)n2)ccnc1Nc1cc(Nc2cc(C)nc(C)n2)ncn1 [Example 119, N6-(2,6-dimethylpyrimidin-4-yl)-N4-[3-methoxy-4-(1-methyl-1,2,4-triazol-3-yl)-2-pyridyl]pyrimidine-4,6-diamine] | 47% |  | 
13 | < 0.2 nM | < 10 nM |  | Cc1cc(Nc2cc(Nc3ncc(-c4cnn(C)c4C)cc3N(C)S(C)(=O)=O)ncn2)nc(C)n1 [Example 124, N-[5-(1,5-dimethylpyrazol-4-yl)-2-[[6-[(2,6-dimethylpyrimidin-4-yl)amino]pyrimidin-4-yl]amino]-3-pyridyl]-N-methyl-methanesulfonamide] | 50% |  | 
14 | < 0.2 nM | < 10 nM |  | Cc1cc(Nc2cc(Nc3ncccc3S(C)(=O)=O)ncn2)nc(C)n1 [Example 125, N4-(2,6-dimethylpyrimidin-4-yl)-N6-(3-methylsulfonyl-2-pyridyl)pyrimidine-4,6-diamine] | 46% |  | 
15 | < 0.2 nM | < 10 nM |  | Cc1cc(Nc2cc(Nc3ncc(-c4cnn(C)c4)cc3N(C)S(C)(=O)=O)ncn2)nc(C)n1 [Example 126, N-[2-[[6-[(2,6-dimethylpyrimidin-4-yl)amino]pyrimidin-4-yl]amino]-5-(1-methylpyrazol-4-yl)-3-pyridyl]-N-methyl-methanesulfonamide] |  |  | 54%
16 | < 0.2 nM | 100 to 1000 nM |  | Cc1cc(Nc2cc(Nc3ncc(-c4cnn(C)c4C)cc3N(C)S(C)(=O)=O)ncn2)ncn1 [Example 135, N-[5-(1,5-dimethylpyrazol-4-yl)-2-[[6-[(6-methylpyrimidin-4-yl)amino]pyrimidin-4-yl]amino]-3-pyridyl]-N-methyl-methanesulfonamide] | 37% |  | 
17 | < 0.2 nM | 10 to 100 nM |  | Cc1cc(Nc2cc(Nc3ncc(-c4ocnc4C)cc3N(C)S(C)(=O)=O)ncn2)nc(C)n1 [Example 170, N-[2-[[6-[(2,6-dimethylpyrimidin-4-yl)amino]pyrimidin-4-yl]amino]-5-(4-methyl-1,3-oxazol-5-yl)pyridin-3-yl]-N-methylmethanesulfonamide] |  |  | 
18 | < 0.2 nM | 10 to 100 nM |  | Cc1cc(Nc2cc(Nc3ncc(C4CC4)cc3P(C)(C)=O)ncn2)nc(C)n1 [Example 171, 4-N-(5-cyclopropyl-3-dimethylphosphorylpyridin-2-yl)-6-N-(2,6-dimethylpyrimidin-4-yl)pyrimidine-4,6-diamine] |  |  | 
19 | 0.2 to 1 nM | 100 to 1000 nM |  | Cc1cc(Nc2cc(Nc3ncccc3C(C)(C)O)ncn2)nc(C)n1 [Example 172, 2-[2-[[6-[(2,6-dimethylpyrimidin-4-yl)amino]pyrimidin-4-yl]amino]pyridin-3-yl]propan-2-ol] |  |  | 
20 | 0.2 to 1 nM | 10 to 100 nM |  | COc1cc(-c2cnn(C)c2C)c(C)nc1Nc1cc(Nc2cc(C)ncn2)ncn1 [Example 176, N6-[5-(1,5-dimethylpyrazol-4-yl)-3-methoxy-6-methyl-2-pyridyl]-N4-(6-methylpyrimidin-4-yl)pyrimidine-4,6-diamine] |  |  | 
21 | 1 to 10 nM |  | 100 to 1000 nM | N4-(2,6-dimethylpyrimidin-4-yl)-N6-(3-methoxy-5-tetrahydropyran-2-yl-2-pyridyl)pyrimidine-4,6-diamine [Example 166] |  |  | 
22 | 0.2 to 1 nM |  | 100 to 1000 nM | N4-(2,6-dimethylpyrimidin-4-yl)-N6-[2-ethoxy-3-(1-methyl-1,2,4-triazol-3-yl)phenyl]pyrimidine-4,6-diamine [Example 45] |  |  | 
23 | 0.2 to 1 nM |  | 100 to 1000 nM | N4-(2,6-dimethylpyrimidin-4-yl)-N6-[4-(3-methylimidazol-4-yl)-2-methylsulfonyl-phenyl]pyrimidine-4,6-diamine [Example 26] |  |  | 
24 | < 0.2 nM |  | < 10 nM | N-[5-(1,5-dimethylpyrazol-4-yl)-2-[[6-[(2,6-dimethylpyrimidin-4-yl)amino]pyrimidin-4-yl]amino]-3-pyridyl]-N-(trideuteriomethyl)methanesulfonamide [Example 133] |  |  | 
